Test results published in US5916915A, “Water-in-stable L-ascorbic acid derivative and a method for preparation thereof, and a skin-whitening cosmetic composition containing the same” (priority 1997, dated 1999).
Entries after “also recorded” stand apart in the source; their conditions may differ.

Experiments:
[1] = test system: skin of Guinea pigs; assay: Skin Sensitization Test (Guinea Pig Maximization test); type: in vivo, Guinea pigs (Hartley Albino Guinea Pig)
Protocol: Test was carried out for six(6)(three males and three females) of Guinea pigs(Hartley Albino Guinea Pig) weighing 300~360 g according to Maggnusson and Kligman's procedure (Guinea Pig Maximization test).
In order to determine the concentrations of the test samples to be applied in Induction test for light irritation and Challenge test for no irritation, for three(3) of Guinea pigs for each test, primary irritations were taken with 6.25%, 12.5% and 25.0% of the test samples, respectively. For each animal, each site (2.5×2.5 cm) of right and left of the back was treated with three concentrations of the test samples in an amount of 0.5 ml/site of AsA-APPA, and then covered with a gauze, which was fixed using an non-irritative tape, for 24 hours. Next, 0.1 ml of 25% of AsA-APPA was intradermally injected to each of two pigs(one male and one female) using 26-gauge 1/2-inched needle. 7 Days later, the same sites were depilated and pretreated with 10% of SLS in petrolatum. Then, each tested site was treated with 0.5 ml/site of AsA-APPA, and then covered with a gauze, which was fixed using an non-irritative tape, for 48 hours. 2 Weeks later, the left back of the depilated pig was treated with the test sample and the right back was treated with physiological saline. 24 Hours later, the tested sites were washed with physiological saline.
As a control, test was carried out using physiological saline, instead of the test sample, in the same procedure.

[2] = Acute Oral Toxicity Test; type: in vivo, ICR mice; conditions: mouse, in vivo, po, acute oral, ICR mice, Litchfield-Wilcoxon's method; read-out: LD50 (lethal dose)
Protocol: (§1) 10 ml/kg of AsA-APPA of Preparation Ex. 2 was diluted with physiological saline to give 50% of test sample. This test sample was orally administrated into the ten(10) of ICR mice(five males and five females) weighing 20~33 g (administrated amount of AsA-APPA: 5 g/kgweight). As a control, 10 ml/kg of physiological saline was orally administrated into the ten(10) of ICR mice(five males and five females) weighing 20~33 g (administrated amount of AsA-APPA: 0 g/kgweight).
(§2) At that day, general appearance was observed every hour for 6 hours. And, from the next day to 14 days, every day, were observed general appearance(clinical symptoms), toxic symptoms, death and the like. Further, change of weight was measured at 1, 3, 7 and 14 days.
(§3) Any of the mice dead during observation period were immediately subjected to autopsy, and the survival mice were subjected to autopsy after observation period.

[3] = test system: ICR mice; assay: Acute Oral Toxicity Test; type: in vivo
Protocol: as §1, §2, §3

[4] = Acute Dermal Toxicity Test; type: in vivo, ICR mice; conditions: mouse, in vivo, topical or ocular, acute dermal, ICR mice, Litchfield-Wilcoxon's method; read-out: LD50 (lethal dose)
Protocol: as §1, with “4 ml/kg” for “10 ml/kg”, “was percutaneously” for “was orally”, “AsA-APPA: 2” for “AsA-APPA: 5”, “control, 4” for “control, 10”
(§4) Before about 24 hours, the back of each mouce was depilated in a size of 1.5×1.5 cm^2. Then, each depilated site was covered with a gauze of 1×1 cm^2 applied with one of the test and control samples, and fixed using an non-irritative tape, for 24 hours.
(§5) At that day, general appearance was observed every hour for 6 hours. And, from the next day to 14 days, every day, were observed general appearance(clinical symptoms), toxic symptoms, death and the like. Further, change of weights was measured at 1, 3, 7 and 14 days.
as §3

[5] = test system: ICR mice; assay: Acute Dermal Toxicity Test; type: in vivo
Protocol: as §1, with “4 ml/kg” for “10 ml/kg”, “was percutaneously” for “was orally”, “AsA-APPA: 2” for “AsA-APPA: 5”, “control, 4” for “control, 10”
as §4, §5, §3

[6] = test system: eye of New Zealand White rabbits; assay: Eye Irritation Test; type: in vivo; conditions: rabbit
Protocol: Test was carried out using the nine(9) of New Zealand White rabbits.
0.1 ml of AsA-APPA of Preparation Ex. 2 was diluted with physiological saline to give 10% of test sample. This test sample was dropped onto the right eye of each rabbit, taking the left eye as a control. After 20~30 seconds, only three(3) rabbits of them were washed sufficiently with the sterilized saline.

[7] = test system: fibroblast; assay: Proliferation of fibroblast (MTT method); type: cell-based; conditions: as low as, DMEM
Protocol: The skin obtained from new epidermal tissue was treated with Type 1 collagenase to remove epidermis. The obtained fibroblast was cultured on Dulbecco's Modified Eagle's Media(DMEM).
Amount of fibroblast was measured by way of MTT method.

[8] = test system: skin of New Zealand White male rabbits; assay: Primary Skin Irritation Test; type: in vivo; conditions: rabbit
Protocol: Test was carried out for twelve(12) of New Zealand White male rabbits whose backs were depilated before 24 hours. And, 0.1 ml of AsA-APPA of Preparation Ex. 2 was diluted with physiological saline to give 50% of test sample.
The test sample was applied to two sites (2.5 cm×2.5 cm) of the right back (amount of AsA-APPA per site: 0.5 ml). As a control, two sites (2.5 cm×2.5 cm) of the left back were treated with 1.0 ml of physiological saline. Each tested site was covered with a gauze, which was fixed using an non-irritative tape. 24 Hours later, the tested sites were washed with physiological saline.

[9] = Stability of AsA-APPA in pH 7 buffer at 50° C. (residual ratio by UV absorbance); type: physicochemical
Protocol: L-Ascorbic acid and AsA-APPA produced in Preparation Ex. 2 were dissolved in buffer solutions of pH 7 to concentrations of 50 μM, respectively, and then maintained in a thermostat of 50° C. At constant intervals, UV absorbances were measured at 259 nm for AsA-APPA and at 266 nm for L-ascorbic acid, to evaluate the stabilities of the test samples as residual ratio(%).

[10] = test system: skin of healthy females; assay: Human Patch Test; type: in vivo
Protocol: Test was carried out for thirty(30) of healthy females aging 20~30 years according to CTFA Guideline(The Cosmetic, Toiletry and Fragrance Association. Inc. Washington, D.C., 20023, 1991).
The back of the subjected was washed with 70% of ethanol and dried, and then, applied with a finn chamber containing 20 μl of patch base incorporating 10% of AsA-APPA of Preparation Ex. 2. The finn chamber was fixed to the tested site using a micropore tape. 24 hours later, the tape and the chamber were removed, and the tested site was marked with marking pen. After 24 hours or 48 hours, skin responses of the tested sites were observed and skin irritation were evaluated according to ICDRG(International Contact Dermatitis Research Group)'s criterion.
*Average Response = Grade of the sample/4(Maximum grade) × 30(Total

[11] = test system: skin of healthy females; assay: Repeat Insult Human Patch Test; type: in vivo
Protocol: Test was carried out for twenty(20) of healthy females aging 20~30 years according to CTFA Guideline(The Cosmetic, Toiletry and Fragrance Association. Inc. Washington, D.C., 20023, 1991).
The back of the subjected was washed with 70% of propanol and dried, and then, applied with a finn chamber containing 20 μl of patch base incorporating 10% of AsA-APPA of Preparation Ex. 2. Applications were repeated every 24 hours for 3 weeks (Induction Period). After about 2 weeks, Challenge Insult Patch was carried out. At this step, the sites tested during the induction period and new sites were applied with the patches for 48 hours. […] And, skin irritation was evaluated according to ICDRG(International Contact Dermatitis Research Group)'s criterion.

[12] = Stability in an aqueous base: precipitation and discoloration; type: physicochemical; set-up: key: -: No precipitation; +: Slight precipitation; ++: Some precipitation; +++: Severe precipitation; conditions: 3 g in 100 ml water
Protocol: Each 3 g of compounds of Preparation Ex. 3 and Ex. 6 and L-ascorbic acid 2-phosphate magnesium was dissolved in 100 ml of distilled water, and then maintained in a thermostat of 50° C. for 30 minutes.
Colorless or pale-yellow
+++ Severe precipitation

[13] = 10% AsA-APPA, text and Table 5, unit not given

NCCCOP(=O)(O)OC1=C(O)[C@@H]([C@@H](O)CO)OC1=O [AsA-APPA, 2-(3-aminopropanephosphoric acid)-L-ascorbate]
Evaluation of skin sensitization ([1]; Guinea pig): very safe to the skin | skin abnormality such as erythema and edema ([1]; Guinea pig, 24, 48 and 72 hours after removing the patches): no skin abnormality such as erythema and edema was observed | Kligman's grade ([1]; Guinea pig, Kligman's criterion): 1 | LD50 at 336 h [2]: 5000 mg/kg | Evaluation ([3]; Acute oral toxicity test): Innoxious | LD50 (lethal dose) ([3]; acute oral, ICR mice, Litchfield-Wilcoxon's method, 20160 min): > 5000 mg/kg | autopsy findings ([3]; oral, 5 g/kg): no abnormal symptom was observed | weight changes in comparison to the control ([3]; oral, 5 g/kg, 1, 3, 7 and 14 days): no significant difference | death ([3]; oral, 5 g/kg, 14 days): no dead mice | LD50 at 336 h [4]: 2000 mg/kg | Evaluation ([5]; Acute dermal toxicity test): Innoxious | LD50 (lethal dose) ([5]; acute dermal, ICR mice, Litchfield-Wilcoxon's method, 20160 min): > 2000 mg/kg | autopsy findings ([5]; percutaneous, 2 g/kg): no abnormal symptom was observed | weight changes in comparison to the control ([5]; percutaneous, 2 g/kg, 1, 3, 7 and 14 days): no significant difference | death ([5]; percutaneous, 2 g/kg, 14 days): no dead mice | Evaluation of eye irritation [6]: No irritative | eye irritation on cornea, iris and conjunctiva ([6]; after 24 hours or 48 hours, 10% test sample): no eye irritation on cornea, iris and conjunctiva was observed | Irritation rate of eye mucos (M.O.I) ([6]; washed and non-washed cases): 0 | concentration showing effective fibroblast proliferation [7]: 10 mM | Evaluation of primary skin irritation [8]: non-irritative or very low-irritative | skin abnormality such as erythema and edema ([8]; 24 or 72 hours after removing the patches): no skin abnormality such as erythema and edema was observed | Draize's PII (Primary Irritation Index) ([8]; due to erythema): 0.13 | stability in neutral aqueous solution ([9]; pH 7, 50° C.): very stable | remaining at 0.5 h, 50 µM ([9]; ph 7 buffer, 30 min., pH 7, 50 μM, 50° C.): 100% | remaining at 1 h, 50 µM ([9]; ph 7 buffer, 1 hr., pH 7, 50 μM, 50° C.): 100% | remaining at 3 h, 50 µM ([9]; ph 7 buffer, 3 hr., pH 7, 50 μM, 50° C.): 100% | remaining at 6 h, 50 µM ([9]; ph 7 buffer, 6 hr., pH 7, 50 μM, 50° C.): 100% | remaining at 24 h, 50 µM ([9]; ph 7 buffer, 24 hr., pH 7, 50 μM, 50° C.): 99.1% | remaining at 144 h, 50 µM ([9]; ph 7 buffer, 6 days, pH 7, 50 μM, 50° C.): 95.5% | remaining at 240 h, 50 µM ([9]; ph 7 buffer, 10 days, pH 7, 50 μM, 50° C.): 93.5% | Evaluation of human patch test ([10]; 10% AsA-APPA): primary irritative response, except for 1% of erythema, was hardly observed; also recorded: No irritative | Average response [10, 13]: 0.42 | Response ([10]; 24 hr., N = 30, 10% AsA-APPA, erythema): 1% | irritation after 48 hours ([10]; 48 hours, 10% AsA-APPA): all the irritation fade away | Response ([10]; 48 hr., N = 30, 10% AsA-APPA): 0% | Average response ([10]; N = 30, 10% AsA-APPA, Table 3): 0.42% | Evaluation of repeat insult human patch test ([11]; 10% AsA-APPA): No irritative | repeat irritation or sensitive irritation ([11]; 10% AsA-APPA): no repeat irritation or no sensitive irritation was observed | Average response, challenge period ([11]; 10% AsA-APPA, unit not given): 0 | Average response, induction period [11, 13]: 0.14 | Average response, challenge period ([11]; n = 20, 10% AsA-APPA, Table 4): 0% | Average response, induction period ([11]; n = 20, 10% AsA-APPA, Table 4): 0.14% | Induction Period response ([11]; week 1, 10% AsA-APPA): 1

NCCCOP(=O)(O)OC1=C(O)[C@@H]([C@@H](O)CO)OC1=O [Prep. Ex. 3]
Precipitation ([12]; day 1): - | Precipitation ([12]; day 3): - | Precipitation ([12]; day 5): - | Precipitation ([12]; day 7): - | Precipitation ([12]; day 9): - | Precipitation ([12]; day 11): - | Precipitation ([12]; day 13): - | Precipitation ([12]; day 15): - | Precipitation ([12]; day 30): -

O=C1O[C@H]([C@@H](O)CO)C(O)=C1OP(=O)([O-])[O-].[Mg+2] [compound 1, L-ascorbic acid 2-phosphate magnesium, reference compound]
Precipitation ([12]; day 1): - | Precipitation ([12]; day 3): + | Precipitation ([12]; day 5): + | Precipitation ([12]; day 7): ++ | Precipitation ([12]; day 9): ++ | Precipitation ([12]; day 11): ++ | Precipitation ([12]; day 13): +++ | Precipitation ([12]; day 15): +++ | Precipitation ([12]; day 30): +++

O=C1O[C@H]([C@@H](O)CO)C(O)=C1O [L-ascorbic acid]
time to decomposition ([9]; about, neutral aqueous solution, 50° C.): ≤ 1 h
